Assay results as given in patent US11578012B2, “Use of N-functionalized alkoxy pyrazole compounds as nitrification inhibitors” (BASF SE, priority 2018, dated 2023).

Assay: volatility (statement on prior-art compound)
Type: physicochemical
Conditions: qualitative statement, no method given

SMILES: CCOc1cc(C)[nH]n1 [3-ethoxy-5-methylpyrazole]
- volatility: high volatility
